Data published in patent US6894185B2, “Substituted chiral allosteric hemoglobin modifiers” (Allós Therapeutics, Inc., priority 1999, dated 2005).

Molecular target: T1, hemoglobin (Homo sapiens, UniProt P68871+P69905)
T1 construct: The whole blood samples were collected in heparinized tubes from healthy volunteers; from tissue; host or cells: human whole blood (heparinized) from healthy volunteers
Test: In vitro whole blood studies (multi-point tonometry and blood gas analysis)
Assay type: cell-based
Settings: Table II
Protocol: Structure-allosteric activity relationships were determined from the synthetic chiral effectors comparing the shift in the oxygen binding curve of Hb solutions using a Hemox-Analyzer. In vitro biological activity testing in the presence of plasma proteins was also performed on selected enantiomers and racemates (multi-point tonometry and blood gas analysis) to screen for candidates with potential clinical use. SAR studies compared the degree in shift in P50 values, i.e., the partial pressure of molecular oxygen necessary to half-saturate hemoglobin. An effector that decreases Hb oxygen affinity increases the P50 value relative to the control. Thus, the activity or potency of each analog could be expressed by the ratio P50 (effector)/P50(control). Tables and II and III summarize the p50 values obtained using human whole blood, while Tables IV and V summarize the P50 and the Hill coefficient values (n50) at half-saturation obtained using Hemox-analyzer. The slope of the log of the oxygen binding curves is known as the Hill coefficient. The Hill coefficient measures the degree of cooperativity in binding for an allosteric protein, the normal range for human blood is 2.7-3.2. Table VI presents the results from the whole blood studies given as a ΔP50 and Hill coefficient (n50) values for the enantiomers and racemates.
The whole blood samples were collected in heparinized tubes from healthy volunteers and stored over ice. The sodium salts of the compounds were prepared as described earlier. A 200 mM stock solution of the effector was prepared in DMSO. A 5.0 mM test solution was prepared from 50 μL of the 200 mM test solution and 1950 μL of whole blood. The blood samples were incubated in IL 237 tonometers (Instrumentation Laboratories, Inc. Lexington, Mass.) for approximately 10-12 min at 37° C. and equilibrated at three separate concentrations of O2 (20%, 40%, and 60%). After equilibration at each concentration of O2, a sample was removed via syringe and aspirated into a IL 1420 Automated Blood Gas Analyzer (Instrumentation Laboratories, Inc. Lexington, Mass.) and a IL 482 and IL 682 Co-oximeter (Instrumentation Laboratories, Inc. Lexington, Mass.) to determine the pH, pCO2, pO2 and the hemoglobin oxygen saturation values (sO2), respectively. The measured values for pO2 and sO2 at each oxygen saturation level were then subjected to a non-linear regression analysis using the program Scientist (Micromath, Salt Lake City, Utah) to calculate the P50 and Hill coefficient values.

T1 sequence (P69905 2-142 limits assumed): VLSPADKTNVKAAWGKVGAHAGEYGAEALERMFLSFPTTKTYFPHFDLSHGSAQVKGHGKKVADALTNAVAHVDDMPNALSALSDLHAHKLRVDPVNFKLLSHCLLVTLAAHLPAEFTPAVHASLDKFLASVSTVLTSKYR
T1 sequence (P68871 2-147 limits assumed): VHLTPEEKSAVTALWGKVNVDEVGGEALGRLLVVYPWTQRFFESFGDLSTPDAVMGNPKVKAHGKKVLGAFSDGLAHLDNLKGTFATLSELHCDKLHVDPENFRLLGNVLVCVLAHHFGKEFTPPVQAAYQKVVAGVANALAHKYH

| Whole Blood Δp50 mm Hg [mm Hg] | Molecule |
| --- | --- |
| 21 | Cc1cc(C)cc(NC(=O)C(O)c2ccc(OC(C)(C)C(=O)O)cc2)c1 (stereo not shown) [Compound 12, 2-{4-[(3,5-Dimethyl-phenylcarbamoyl)-hydroxy-methyl]-phenoxy}-2-methyl-propionic acid] |
| 4 | CCOC(C(=O)Nc1cc(C)cc(C)c1)c1ccc(OC(C)(C)C(=O)O)cc1 (stereo not shown) [Compound 13, 2-{4-[(3,5-Dimethyl-phenylcarbamoyl)-ethoxy-methyl]-phenoxy}-2-methyl-propionic acid] |
| 15 | Cc1cc(C)cc(NC(=O)Cc2ccc(OC(C(=O)O)c3ccccc3)cc2)c1 (stereo not shown) [Compound 14] |
| 12 | Cc1cc(C)cc(NC(=O)Cc2ccc(OC(C)(C(=O)O)c3ccccc3)cc2)c1 (stereo not shown) [Compound 15] |
| 12 | CCC(Oc1ccc(CC(=O)Nc2cc(C)cc(C)c2)cc1)(C(=O)O)c1ccccc1 (stereo not shown) [Compound 16] |
| 1 | Cc1cc(C)cc(NC(=O)C2(C)CCc3cc(OC(C)(C)C(=O)O)c(C)c(C)c3O2)c1 (stereo not shown) [Compound 17] |

Same assay, conditions: Table III

| Whole Blood Δp50 mm Hg [mm Hg] | Molecule |
| --- | --- |
| 17 | Cc1cc(C)cc(NC(=O)Cc2ccc(OC(C)(C)C(=O)NC(C)C(=O)O)cc2)c1 (stereo not shown) [Compound 22] |
| 22 | Cc1cc(C)cc(NC(=O)Cc2ccc(OC(C)(C)C(=O)NC(C)C(=O)O)cc2)c1 (stereo not shown) [Compound 23] |
| 22 | Cc1cc(C)cc(NC(=O)Cc2ccc(OC(C)(C)C(=O)NC(C(=O)O)C(C)C)cc2)c1 (stereo not shown) [Compound 24] |
| 20 | Cc1cc(C)cc(NC(=O)Cc2ccc(OC(C)(C)C(=O)NC(C(=O)O)C(C)C)cc2)c1 (stereo not shown) [Compound 25] |
| 20 | Cc1cc(C)cc(NC(=O)Cc2ccc(OC(C)(C)C(=O)NC(C(=O)O)C(C)C)cc2)c1 (stereo not shown) [Compound 26] |
| 10 | Cc1cc(C)cc(NC(=O)Cc2ccc(OC(C)(C)C(=O)NC(Cc3ccccc3)C(=O)O)cc2)c1 (stereo not shown) [Compound 27] |
| 20 | Cc1cc(C)cc(NC(=O)Cc2ccc(OC(C)(C)C(=O)NC(Cc3ccccc3)C(=O)O)cc2)c1 (stereo not shown) [Compound 28] |
| 26 | COC(=O)C(CCC(=O)O)NC(=O)C(C)(C)Oc1ccc(CC(=O)Nc2cc(C)cc(C)c2)cc1 (stereo not shown) [Compound 30] |
| 21 | COC(=O)C(CC(=O)O)NC(=O)C(C)(C)Oc1ccc(CC(=O)Nc2cc(C)cc(C)c2)cc1 (stereo not shown) [Compound 31] |
| 11 | Cc1cc(C)cc(NC(=O)Cc2ccc(OC(C)(C)C(=O)NC(Cc3c[nH]c4ccccc34)C(=O)O)cc2)c1 (stereo not shown) [Compound 32] |
| 16 | CSCCC(NC(=O)C(C)(C)Oc1ccc(CC(=O)Nc2cc(C)cc(C)c2)cc1)C(=O)O (stereo not shown) [Compound 33, 2-(2-(4-((3,5-Dimethyl-phenylcarbamoyl)-methyl)-phenoxy)-2-methyl-propionylamino)-4-methylsulfanyl-butyric acid] |
| 11 | CSCCC(NC(=O)C(C)(C)Oc1ccc(CC(=O)Nc2cc(C)cc(C)c2)cc1)C(=O)O (stereo not shown) [Compound 34, 2-(2-(4-((3,5-Dimethyl-phenylcarbamoyl)-methyl)-phenoxy)-2-methyl-propionylamino)-4-methylsulfanyl-butyric acid] |
| 12 | Cc1cc(C)cc(NC(=O)Cc2ccc(OC(C)(C)C(=O)N3CCCC3C(=O)O)cc2)c1 (stereo not shown) [Compound 35] |
| 18 | Cc1cc(C)cc(NC(=O)Cc2ccc(OC(C)(C)C(=O)NC(CSCc3ccccc3)C(=O)O)cc2)c1 (stereo not shown) [Compound 36, 3-Benzylsulfanyl-2-(2-(4-((3,5-Dimethyl)-phenylcarbamoyl)-methyl-phenoxy)-2-methyl-propionylamino)-propionic acid] |
| 30 | Cc1cc(C)cc(NC(=O)Cc2ccc(OC3(C(=O)N[C@H](C)C(=O)O)CCCC3)cc2)c1 [Compound 38, 1-[4-(((3,5-dimethylanilino)carbonyl)methyl)phenoxy]cyclopentanecarbonyl-D-alanine] |
| 27 | Cc1cc(C)cc(NC(=O)Cc2ccc(OC3(C(=O)N[C@@H](C(=O)O)C(C)C)CCCC3)cc2)c1 [Compound 42, 1-[4-(((3,5-dimethylanilino)carbonyl)methyl)phenoxy]cyclopentanecarbonyl-D-valine] |
| 20 | Cc1cc(C)cc(NC(=O)Cc2ccc(OC3(C(=O)N[C@@H](Cc4ccccc4)C(=O)O)CCCC3)cc2)c1 [Compound 45, 1-[4-(((3,5-dimethylanilino)carbonyl)methyl)phenoxy]cyclopentanecarbonyl-L-phenylalanine] |
| 20 | Cc1cc(C)cc(NC(=O)Cc2ccc(OC3(C(=O)N[C@@H](Cc4c[nH]c5ccccc45)C(=O)O)CCCC3)cc2)c1 [Compound 47, 1-[4-(((3,5-dimethylanilino)carbonyl)methyl)phenoxy]cyclopentanecarbonyl-L-tryptophan] |
| 22 | Cc1cc(C)cc(NC(=O)Cc2ccc(OC3(C(=O)N[C@@H](CCC(=O)O)C(=O)O)CCCC3)cc2)c1 [Compound 48, 1-[4-(((3,5-dimethylanilino)carbonyl)methyl)phenoxy]cyclopentanecarbonyl-L-glutamate] |
| 21 | CSCC[C@H](NC(=O)C1(Oc2ccc(CC(=O)Nc3cc(C)cc(C)c3)cc2)CCCC1)C(=O)O [Compound 52, 1-[4-(((3,5-dimethylanilino)carbonyl)methyl)phenoxy]cyclopentanecarbonyl-L-methionine] |
| 27 | Cc1cc(C)cc(NC(=O)Cc2ccc(OC3(C(=O)N[C@@H](CC(=O)O)C(=O)O)CCCC3)cc2)c1 [Compound 55, 1-[4-(((3,5-dimethylanilino)carbonyl)methyl)phenoxy]cyclopentanecarbonyl-L-aspartate] |
| 7 | Cc1cc(C)cc(NC(=O)Cc2ccc(OC3(C(=O)N[C@@H](CSCc4ccccc4)C(=O)O)CCCC3)cc2)c1 [Compound 57, 1-[4-(((3,5-dimethylanilino)carbonyl)methyl)phenoxy]cyclopentanecarbonyl S-benzyl-L-cysteine] |
| 0.4 | Cc1cc(C)cc(NC(=O)Cc2ccc(OC3(C(=O)N[C@@H](CCCCNC(=O)OCc4ccccc4)C(=O)O)CCCC3)cc2)c1 [Compound 59, N^a-1-[4-(((3,5dimethylanilino)carbonyl)methyl)phenoxy]cyclopentane-carbonyl-N^e-benzyloxycarbonyl-L-lysine] |
| 14 | Cc1cc(C)cc(NC(=O)Cc2ccc(OC3(C(=O)N[C@H](CCCCNC(=O)OCc4ccccc4)C(=O)O)CCCC3)cc2)c1 [Compound 60, N^a-1-[4-(((3,5dimethylanilino)carbonyl)methyl)phenoxy]cyclopentane-carbonyl-N^e-benzyloxycarbonyl-D-lysine] |
| −0.2 | Cc1cc(C)cc(NC(=O)Cc2ccc(OC3(C(=O)N[C@H](CCCCN)C(=O)O)CCCC3)cc2)c1 [Compound 61, 1-[4-(((3,5-dimethylanilino)carbonyl)methyl)phenoxy]cyclopentanecarbonyl-D-lysine] |
| 17 | Cc1cc(C)cc(NC(=O)Cc2ccc(OC(C)(C)C(=O)NCC(=O)O)cc2)c1 [KDD4-24] |
| 10 | (2-(2-{4-[(3,5-Dimethyl-phenylcarbamoyl)-methyl]-phenoxy}-2-methyl-propionylamino)-4-pentanoic acid [Compound 29] |

| Molecule | Whole Blood Δp50 mm Hg [mm Hg] |
| --- | --- |
| 1-[4-(((3,5-dimethylanilino)carbonyl)methyl) phenoxy]cyclopentane carbonyl glycine [Compound 37] | 25 |
